Experimental findings from US9827217B2, “Pharmaceutically acceptable salts of B-guanidinopropionic acid with improved properties and uses thereof” (Rgenix, Inc., priority 2015, dated 2017) are described below.

“Also recorded” adds a separate entry of the source.

Holding throughout (assay type): physicochemical
Series [1] in a line: Solid form stability of 1:1 β-GPA fumarate at various temperature/humidity conditions.
Assay in series [2]: as above
The following applies: for XRPD after stability study: a week. As for the experimental part:
The solid form stability of β-GPA fumarate was studied at various temperature/humidity conditions as listed in Table 22 for a week using saturated salt solution chambers. The samples were analyzed by XRPD after a week.

Series [3] can be described thus: Gravimetric solubility of β-GPA fumarate in solvents. Conditions: fifteen solvents and solvent mixtures at 15 and 45° C. As to the method: Solubility of β-GPA fumarate was measured gravimetrically in fifteen different solvents and solvent mixtures at 15 and 45° C. About 100 mg of the compound was dispensed in ten volumes (1 mL) of the solvent/solvent mixture and slurried for 48 hours. Table 23 represents the solubility of β-GPA fumarate in different solvents. After 48 hours the vials were centrifuged. The supernatant was collected and left for slow evaporation under vacuum at 45° C. and solubility was determined. The solids obtained after centrifugation and evaporation were analyzed by XRPD.

Series [4] can be described thus: Determination of bulk and tapped density. The following applies: for Tapped density (ρT): Tap density analyzer. As for the experimental part:
The bulk density of β-GPA oxalate (Pattern 18 B), succinate (Pattern 15A), and fumarate (Pattern 7A) were determined by pouring in a known amount of salt (g) into a measuring cylinder. The volume (Vi) occupied by the salt was recorded and the bulk density (ρB) was determined using equation 1. ρB=g/Vi (1)
The tapped densities of the salts were determined using a Tap density analyzer. A known amount of salt was poured (g) into a measuring cylinder and the initial volume was recorded and tapped using a Tap density analyzer. The final volume (Vf) after tapping was recorded and the tapped density (ρT) was calculated by using equation 2. ρT=g/Vf (2)

Series [5] is described as follows: Solid form stability of salts in different solvents (slurry). Conditions: 48 hours, room temperature. As for the experimental part:
Three salts were studied for solid form stability in water (disproportionation test), methanol, acetonitrile, and acetone:water (9:1) for 48 hours at room temperature.

A short description of series [6]: Dynamic vapor sorption (moisture uptake). As to the method: Samples were analyzed using an Aquadyne DVS-2 gravimetric water sorption analyzer. The relative humidity was adjusted between 2-95% and the weight of the sample was continuously monitored and recorded.
[…]: β-GPA maleate (1:1) Form II, β-GPA fumarate (1:1), β-GPA maleate (2:1), β-GPA succinate (2:1) and β-GPA oxalate (1:1) were analyzed by DVS experiment followed by XRPD analysis of the sample at the end of the experiment.
Sample 2162-64-1 was analyzed by DVS in triplicate and the post DVS samples were characterized by XRPD to identify the form at the end of the experiment.

Series [7] can be described thus: Flowability measurement using Hanson Flodex unit. The following applies: density and Hanson Flodex data. From the text:
A cylindrical vessel is secured to the stand and above that a funnel is also secured such that the bottom of the funnel is close to the vessel. A powder load of ≈50-60 g is then poured through the funnel into the middle of the cylinder. The lever device is pulled to open the hole in the disk quickly and without vibration. If a powder slowly flows through the small-diameter holes, leaving a cavity shaped like an upside-down, truncated cone, the test is considered positive. If a powder flocculates in bulk and falls abruptly, forming a cylindrical cavity, the test is considered negative. […] If the experiment is negative, the powder is tested again with a disk having a larger hole.

The nature of series [8]: Temperature cycling of 1:1 β-GPA fumarate. As for the experimental part: The following (Table 25) experiments were performed to isolate possible polymorphic forms of 1:1 β-GPA fumarate.
Series [9] is described as follows: Solubility of β-GPA in water.
A short description of series [10]: Stability of free β-GPA at 40° C. at 75% humidity. Conditions: 40° C. at 75% humidity after 4 weeks.
Series [11] in a line: Determination of Carr's index and Hausner ratio. The following applies: scale of Table 5. From the text: The flow properties of β-GPA are sub-optimal. The bulk density is 0.389 g/cc and the tapped density is 0.627 g/cc. These measurements can be used to calculate the Carr's index and Hausner ratio for a substance. The Carr's index and Hausner ratio are indicators of flowability of a powder. As known in the art, e.g., as described in Carr R. L. Chem. Eng. 1965, 72, 163-168, the relationship to flowability of a powder to the Carr's index and Hausner ratio is based on the scale shown in Table 5 below.
Carr's index or Carr's compressibility index (C) is an indication of the compressibility of a powder. It can be calculated using the equation below: Carr's index(C)=100(Vi−Vf)/Vi (3)
The Hausner ratio is a number that is correlated to the flowability of a powder or granular material. It is calculated by using the equation below: Hausner ratio=Vi/Vf (4)

`N=C(N)NCCC(=O)O.O=C(O)/C=C/C(=O)O` [β-GPA fumarate (1:1)]: the “XRPD after stability study” value in series [1] (60 ° C., 50% relative humidity, a week) is “Pattern 7A”; in [2] (20 ° C., 43% relative humidity) it was “Pattern 7A”; in [2] (20 ° C., 59% relative humidity) it was “Pattern 7A”; in [2] (20 ° C., 73% relative humidity) it was “Pattern 7A”; in series [2] (20 ° C., >95% relative humidity), “Pattern 7A”; in series [2] (40 ° C., 82% relative humidity), “Pattern 7A”. Besides, the “XRPD after stability study” value in series [2] (60 ° C., 80% relative humidity) is recorded as “Pattern 7A”. In addition, the “Solid form stability at high humidity (XRPD)” value in series [1] (sample 2162-64-1, RH>95% at room temperature (20° C.), 48 hours) is recorded as “retain its original XRPD pattern (Pattern 7A); also recorded: stable”. In addition, in [2] (various temperature/RH conditions of Table 22, a week), the “XRPD after stability study (summary)” value was “retained the original XRPD pattern (Pattern 7A)”. The “Solid form of precipitates after 48 hours slurries (XRPD)” value in series [3] was “no form transformations”. Also, the “Bulk density (ρB)” value in series [4] was found to be 0.576 g/cc. Moreover, the “Tapped density (ρT)” value in series [4] came out at 0.613 g/cc. The “Solid form stability (XRPD) after slurry in acetone:water (9:1)” value in series [5] (acetone:water (9:1)) is on record as “retain their XRPD pattern”. The “Solid form stability (XRPD) after slurry in acetonitrile” value in series [5] (acetonitrile) was “retain their XRPD pattern”. Besides, the “Solid form stability (XRPD) after slurry in methanol” value in series [5] (methanol) is recorded as “retain their XRPD pattern”. Besides, the “Solid form stability (XRPD) after slurry in water (disproportionation test)” value in [5] is listed as “retained their XRPD patterns”; in [5] (listed as 1:1 β-GPA fumarate), “retained their XRPD pattern”. For the same compound, the “Solid form after the DVS experiment (XRPD)” value is recorded as “presence of two peaks from the β-GPA” in [6] (XRPD of post DVS sample); “presence of β-GPA peaks along with Pattern 7A” in series [6] (XRPD of post DVS sample, listed as 1:1 fumarate); “no form change” in [6] (XRPD of post DVS sample, listed as 1:1 fumarate salt); “identical to β-GPA fumarate (Pattern 7A); also recorded: did not exhibit any dissociation of the salt” in [6] (scaled-up sample 2162-64-1, three DVS experiments). Moreover, the “Moisture uptake during DVS” value in series [6] (scaled-up sample 2162-64-1, DVS in triplicate) is “less than 0.1%”. For the same compound, in [7], the “Flow character (summary from the experimental data)” value was “excellent”. The “Result (XRPD) after temperature cycling” value in series [8] (50° C. 2 hours, RT, 50° C. 48 hours) is listed as “Pattern 7A”; in series [8] (dry ice-acetone 30 minutes, RT), “Pattern 7A”; in series [8] (heated to 150° C. and brought to room temperature, three cycles), “Pattern 7A”; in series [8] (heated to 165° C., immediately dry ice/acetone cooling bath 15 min) it was “Pattern 7D”; in series [8] (vacuum oven 130° C. 2 hours, RT, 130° C. 48 hours), “Pattern 7A”. In addition, the Appearance after heating result in [8] (heating at 160-165° C. (2162-84-7)) is reported as “yellow to brownish solid”.

On to `N=C(N)NCCC(=O)O` [β-GPA, β-Guanidinopropionic acid, reference compound], for which the solubility in [9] was more than 50 mg/mL. In series [4], the “Bulk density (ρB)” value came out at 0.389 g/cc and the “Tapped density (ρT)” value is reported as 0.627 g/cc. Moreover, the Degradation entry in [10] is “No degradation”. For the same compound, the “Flow character by Carr's index” value in [11] was “Very poor (32-37)”. Also, the “Moisture uptake during the DVS experiment” value in [6] (DVS, relative humidity cycled up to 95%) is given as “around 0.1%”. The “Solid form after the DVS experiment (XRPD)” value in series [6] (XRPD of post DVS sample) is given as “No change in the solid form”. Moreover, the “Flow character (summary from the experimental data)” value in series [7] is listed as “poor”.

The solubility is the dissolved amount per volume that the medium holds. A higher solubility goes with much dissolved substance.
